This passage reports GI50 and TGI results from PubChem BioAssay (NCI).

Holding throughout (assay): NCI tumour cell line growth inhibition, 48 h
In experiment [1] the test system is HT29 colon.
Experiment [2] concerns K-562 leukemia.
Experiment [3] deals with KM12 colon.
The test system of experiment [4] is M14 melanoma.
Experiment [5] relates to OVCAR-8 ovarian.
The subject of experiment [6] is PC-3 prostate.
Experiment [7] concerns RXF 393 renal.
Experiment [8] deals with SF-295 CNS.
Experiment [9] deals with SW-620 colon.
Experiment [10] deals with T-47D breast.

Structures are written as SMILES.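 Protocol summary: plate cells (96-well), add compound at 5 concentrations, incubate 48 h, interpolate endpoints linearly. GI50 = concentration required for 50% inhibition of growth. The concentration for full growth arrest is given as TGI.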 Some results are limits rather than exact numbers.

In the case of `O=C(CC12CC3CC(CC(C3)C1)C2)NCCOCCOCCNC(=O)c1cc2c(o1)C(=O)c1ccccc1C2=O`, the GI50 is 2.38 µM in experiment [1]; 1.33 µM in experiment [2]; 1.58 µM in experiment [3]; 0.211 µM in experiment [4]; 0.813 µM in experiment [5]; 1.38 µM in [6]. Moreover, the GI50 in experiment [7] is 1.34 µM; in experiment [8], 0.663 µM; in [9], 1.21 µM; in [10] it was 1.8 µM. Further, the TGI in experiment [1] was found to be 5.85 µM; in [2], 4.9 µM; in [3], 5.13 µM; in [4], 0.462 µM; in experiment [5], 11.6 µM; in experiment [6] it was 9.21 µM. Also, the TGI in [7] was 2.65 µM; in [8], 1.94 µM; in experiment [9], 2.87 µM; in experiment [10], 5.06 µM.
Take `CCOc1ccc(NC(=O)Nc2cc(C(C)C)ccc2C)cc1`: the GI50 in experiment [1] was 32.8 µM; in experiment [2], 21.4 µM; in experiment [3] it was 11.6 µM; in experiment [4], 21.9 µM; in experiment [5] it was 3.67 µM; in experiment [6] it was 11.4 µM. The GI50 is 1.64 µM in experiment [7], 7.45 µM in experiment [8], 11.2 µM in [9] and 8.94 µM in [10]. In addition, the TGI in [1] is greater than 100 µM; in experiment [2], greater than 100 µM; in experiment [3], greater than 100 µM; in [4], greater than 100 µM; in experiment [5] it was 14.8 µM; in experiment [6] it was greater than 58 µM. The TGI in experiment [7] is 4.9 µM; in [8] it was 25.4 µM; in [9] it was greater than 100 µM; in experiment [10] it was greater than 100 µM.
As to `COc1ccc2c(c1)C(=O)c1c-2c(NCCCN(C)C)nc2ccccc12`, the GI50 in [1] was 1.02 µM; in experiment [2], 3.69 µM; in [3], 2.05 µM; in [4], 5.41 µM; in experiment [5], 1.74 µM; in [6] it was 3.53 µM. Also, the GI50 in [8] is 5.13 µM; in experiment [9], 1.45 µM; in [10], 17.8 µM. For the same molecule, the TGI worked out at 2.82 µM in [1]; 14.7 µM in experiment [2]; 5.72 µM in [3]; 17.9 µM in experiment [4]; 7.67 µM in experiment [5]; 14.2 µM in experiment [6]. Also, the TGI was determined as 18.9 µM in [8], 2.99 µM in experiment [9] and 34.2 µM in [10].
In the case of `O=C1Nc2ccc(F)c3c(OCCO)cc(-c4ccc[nH]4)c1c23`, the GI50 in experiment [1] was 1.99 µM; in experiment [2] it was 5.28 µM; in experiment [3], 0.274 µM; in [4], 1.4 µM; in experiment [5] it was 2.76 µM; in experiment [6], 1.32 µM. Besides, the GI50 in [7] is 0.987 µM; in experiment [8] it was 2.43 µM; in experiment [9], 0.837 µM; in experiment [10] it was 0.513 µM. Further, the TGI was determined as 9.95 µM in experiment [1]; 25 µM in [2]; 2.37 µM in experiment [3]; 12.4 µM in experiment [4]; 18.3 µM in [5]; 10.3 µM in experiment [6]. In addition, the TGI came out at 4.98 µM in [7], 18.9 µM in [8], 8.23 µM in experiment [9] and 1.52 µM in [10].
As to `O=C1OCC(c2ccc(O)c(O)c2)=C1c1cc(O)c(O)c(O)c1`, the GI50 in experiment [1] is 32.5 µM; in experiment [2], 21.2 µM; in experiment [3], 23.8 µM; in [4], 23.9 µM; in [5] it was 75 µM; in experiment [6] it was 17.9 µM. Moreover, the GI50 in [7] was greater than 100 µM; in experiment [8] it was 14.6 µM; in experiment [9], 21.1 µM; in experiment [10], 23.2 µM. The TGI in [1] is 98.2 µM; in experiment [2] it was 46.1 µM; in experiment [3] it was 55.6 µM; in experiment [4], 69.7 µM; in experiment [5], greater than 100 µM; in experiment [6], 43.3 µM. Also, the TGI is greater than 100 µM in [7], 30.9 µM in [8], 42.8 µM in experiment [9] and 60.2 µM in experiment [10].
Take `COCCNCC(O)Cn1c2ccc(Cl)cc2c2cc(Cl)ccc21` (centres undefined): the GI50 was 2.23 µM in experiment [1]; 2.19 µM in experiment [2]; 1.9 µM in experiment [3]; 2.06 µM in [4]; 2.06 µM in experiment [5]; 1.75 µM in experiment [6]. Moreover, the GI50 in [8] is 1.93 µM; in experiment [9], 1.83 µM; in experiment [10] it was 1.97 µM. The TGI in [1] is 4.24 µM; in [2], 4.64 µM; in experiment [3], 3.42 µM; in [4] it was 4.16 µM; in experiment [5], 5.08 µM; in experiment [6], 3.81 µM. The TGI in [8] was found to be 4.28 µM; in [9], 3.64 µM; in experiment [10], 4.03 µM.
Take `COc1ccc(-c2nc(-c3nc4ccc(F)cc4[nH]3)cc3c2[nH]c2ccccc23)cc1`: the GI50 was 2.96 µM in [1]; 2.79 µM in [2]; 2.78 µM in experiment [3]; 2.54 µM in [4]; 1.78 µM in experiment [5]; 1.69 µM in [6]. Also, the GI50 in experiment [7] is 1.72 µM; in [9], 3.73 µM; in experiment [10], 2.56 µM. The TGI in [1] is 9.01 µM; in experiment [2], greater than 100 µM; in [3], 12.2 µM; in experiment [4] it was 7.12 µM; in [5], 6.69 µM; in [6] it was 5.71 µM. Further, the TGI in experiment [7] was 4.55 µM; in experiment [9], greater than 100 µM; in [10] it was greater than 100 µM.
